Measurements from BindingDB's records for patent US20250171467 (Merck Sharp & Dohme, 2025).

Target: T1, Ceramide glucosyltransferase (Homo sapiens, UniProt Q16739)
T1 sequence (Q16739 whole entry): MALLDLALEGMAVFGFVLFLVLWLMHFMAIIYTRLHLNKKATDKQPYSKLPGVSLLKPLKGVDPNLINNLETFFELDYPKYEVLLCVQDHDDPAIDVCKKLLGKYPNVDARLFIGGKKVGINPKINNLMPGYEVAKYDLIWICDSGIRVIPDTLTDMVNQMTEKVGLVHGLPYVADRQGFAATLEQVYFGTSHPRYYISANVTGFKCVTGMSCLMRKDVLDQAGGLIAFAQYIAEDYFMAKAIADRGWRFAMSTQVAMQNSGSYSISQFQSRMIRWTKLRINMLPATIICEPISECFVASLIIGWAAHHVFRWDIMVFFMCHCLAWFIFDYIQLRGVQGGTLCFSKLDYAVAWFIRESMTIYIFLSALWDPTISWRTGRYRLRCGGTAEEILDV
Test: UDP-Glo Glucosylceramide Synthase Biochemical Assay
Procedure: An aliquot of GCS enzyme (1.5 μg crude golgi preparation, total protein) and titrated test compound were aliquoted to each well and incubated for 30 minutes at room temperature. […] An equivalent volume of substrate mixture was then added to each well. Following a 20 h incubation at room temperature to allow for GCS turnover of substrate, an equal volume of UDP detection reagent (Promega) was added to each well and incubated for an additional 75 minutes at room temperature to simultaneously convert the accumulated UDP product into ATP and generate light in a luciferase reaction. The generated light was detected using a luminometer.

COc1ccc(-n2nc(C(=O)N3CCCN(CCF)CC3)c3c2CCOC3)cc1 [US20250171467, Compound 11]
EC50: 12 µM
